From patent EP1100482B1, “USE OF CALIX(N)ARENES IN THE MANUFACTURE OF A MEDICAMENT FOR TREATING FIBROTIC DISEASES” (CENTRE NATIONAL DE LA RECHERCHE SCIENTIFIQUE, priority 1998, dated 2000)
Changes are numbered by the printed parent chain.

Experiments:
[1] = biological target: T1, lysyl-oxydase d'aorte bovine (Bos taurus, UniProt P33072); assay: Lysyl oxidase activity assay (tritium release from 3H elastin); type: biochemical; settings: partially purified lysyl oxidase from fetal bovine aorta; 3H élastine substrate; 37°C; pH 8,0; read-out: concentration nécessaire pour inhiber 50% de l'activité de lysyl-oxydase
T1 construct: De l'aorte bovine foetale broyée est rincée par du tampon NaCI 0,12M; from tissue; host or cells: fetal bovine aorta
T1 sequence (P33072 170-418): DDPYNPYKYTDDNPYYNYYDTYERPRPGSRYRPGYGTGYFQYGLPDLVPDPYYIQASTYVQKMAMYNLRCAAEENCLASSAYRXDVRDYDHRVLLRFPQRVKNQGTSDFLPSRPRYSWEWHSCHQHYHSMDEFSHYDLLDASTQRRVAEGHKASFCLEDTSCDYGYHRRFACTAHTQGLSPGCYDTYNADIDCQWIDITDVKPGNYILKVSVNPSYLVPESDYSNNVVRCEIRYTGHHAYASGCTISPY
Description: 1. Purification partielle de la lysyl-oxydase d'aorte bovine
Ce protocole est inspiré de celui de (WILLIAMS et KAGAN, Anal. Biochem. 149, 430-437, 1985), et de (KAGAN et al. Biochem. J. 177, 203-214 (1979)), qui a été sensiblement modifié.
Toutes les étapes sont effectuées à 4 °C ou dans la glace.
De l'aorte bovine foetale broyée est rincée par du tampon NaCI 0,12M, NaPi 16 mM, pH 7,7 puis par du NaPi 16 mM, pH 7,7 (tampon PB). La lysyl oxydase est extraite du résidu par de l'urée 4 M (concentration finale dans le tampon PB). Le surnageant obtenu après centrifugation à 10.000 g pendant 30 minutes est dilué deux fois dans du PB puis incubé avec de la DEAE-cellulose pendant 3 heures. La résine est mise en colonne et rincée successivement par du tampon PB contenant de l'urée 2M , du tampon PB puis du tampon PB contenant du NaCI 0,4 M.
La lysyl oxydase est éluée à partir de la DEAE-cellulose par de l'urée 6M dans du tampon PB. Les fractions présentant une absorbance à 280 nm sont réunies et dialysées pendant une nuit contre du tampon PB en présence de gel de Bleu de Cibacron (Biorad). Le gel est ensuite mis en colonne, et après des rinçages successifs par du tampon PB, du tampon PB-NaCI 1M et à nouveau du tampon PB, la lysyl oxydase est éluée du gel de Bleu de Cibacron par de l'urée 6 M dans du tampon PB. […]

lysyl oxydase = biological target: T2, lysyl oxydase (Homo sapiens, UniProt P28300); settings: specific lysyl oxidase inhibitor described in the literature (Kagan, 1994); cited from earlier work
T2 sequence (P28300 169-417): T1 sequence (P33072 170-418) with T10S, S29G, P49A, A64S, S80T, X84A, S142N, N188G, S224T, E231D

IC50 [1]	Compound	Ki (lysyl oxydase)
1200 µM	O=S(=O)(O)c1cc2c(O)c(c1)Cc1cc(S(=O)(=O)O)cc(c1O)Cc1cc(S(=O)(=O)O)cc(c1O)Cc1cc(S(=O)(=O)O)cc(c1O)Cc1cc(S(=O)(=O)O)cc(c1O)Cc1cc(S(=O)(=O)O)cc(c1O)C2	–
–	N#CCCN [βAPN, β amino-propionitrile]	6 µM
